Measurements published in patent publication US8460858B2, “Near-infrared-ray absorbing material containing cyanine compound, and cyanine compound” (Adeka Corporation, priority 2008, dated 2013).
Structures can show the parent of a compound that is named as a salt.

Tests used:
[1] = Decomposition point measurement (TG/DTA); format: physicochemical; conditions: temperature at which the mass started to decrease, differential thermal analysis, temperature-rise rate 10° C./minute
Protocol: The UV-Visible absorption spectra measurement was conducted by preparing a chloroform solution of each compound to be tested, and employing a UV-Vis-NIR spectrophotometer (“V-570”; product from JASCO Corporation). The decomposition point measurement was conducted using a thermogravimetry differential thermal analyzer (“TG/DTA 6200”; product from Seiko Instruments Inc.), to find the temperature at which the mass started to decrease in differential thermal analysis at a temperature-rise rate of 10° C./minute.

[2] = Solubility measurement in methyl ethyl ketone (MEK); format: physicochemical; conditions: concentration when the solute completely dissolved
Protocol: The solubility measurement was conducted as follows: the compound to be tested was weighed; methyl ethyl ketone (MEK) was slowly added thereto; when the solute completely dissolved, the solution was weighed; and the concentration of the test compound in the solution was determined by calculation.

Decomposition Point [1]	Solubility (MEK) [2]	Compound
180.5 °C	0.97 wt %	CN1/C(=C/C=C/C=C/C=C/C=C/C2=[N+](C)c3ccc4ccccc4c3C2(C)Cc2ccccc2)C(C)(Cc2ccccc2)c2c1ccc1ccccc21 (stereo not shown) [Example 1-3, Tetrafluoroborate Salt of Compound No. 3]
255.8 °C	0.98 wt %	CN1/C(=C/C=C/C=C/C=C/C=C/C2=[N+](C)c3ccc4ccccc4c3C2(C)Cc2ccccc2)C(C)(Cc2ccccc2)c2c1ccc1ccccc21 (stereo not shown) [Example 1-4, Bis(Trifluoromethane Sulfone)Imide Salt of Compound No. 3]
192.6 °C	1.62 wt %	CN1/C(=C/C=C/C=C/C=C/C=C/C2=[N+](C)c3ccc4ccccc4c3C2(Cc2ccccc2)Cc2ccccc2)C(Cc2ccccc2)(Cc2ccccc2)c2c1ccc1ccccc21 [Example 1-6, Tetrafluoroborate Salt of Compound No. 4]
266.5 °C	3.71 wt %	CN1/C(=C/C=C/C=C/C=C/C=C/C2=[N+](C)c3ccc4ccccc4c3C2(Cc2ccccc2)Cc2ccccc2)C(Cc2ccccc2)(Cc2ccccc2)c2c1ccc1ccccc21 [Example 1-7, Bis(Trifluoromethane Sulfone)Imide Salt of Compound No. 4]
193.8 °C	1.36 wt %	CCCN1/C(=C/C=C/C=C/C=C/C=C/C2=[N+](CCC)c3ccc4ccccc4c3C2(Cc2ccccc2)Cc2ccccc2)C(Cc2ccccc2)(Cc2ccccc2)c2c1ccc1ccccc21 [Example 1-9, Tetrafluoroborate Salt of Compound No. 6]
238.4 °C	0.73 wt %	CN1/C(=C/C=C/C=C/C=C/C=C/C2=[N+](C)c3ccccc3C2(C)C)C(C)(C)c2ccccc21 [Example 1-10, bis(trifluoromethane sulfone)imide salt of Compound No. 61]
280.7 °C	1.46 wt %	CN1/C(=C/C=C/C=C/C=C/C=C/C2=[N+](C)c3ccc4ccccc4c3C23CCCCC3)C2(CCCCC2)c2c1ccc1ccccc21 [Example 1-11, bis(trifluoromethane sulfone)imide salt of Compound No. 64]

Further lines, the molecule ahead of its results:

Compound	Decomposition Point [1]	Solubility (MEK) [2]
O=S(=O)(c1ccc2c(c1)[S][Cu-]1([S]2)[S]c2ccc(S(=O)(=O)N3CCOCC3)cc2[S]1)N1CCOCC1 [1-3, reference compound]	198.7 °C	0.20 wt %
CN1/C(=C/C=C/C=C/C=C/C=C/C2=[N+](C)c3c(c4ccccc4c4ccccc34)C2(C)C)C(C)(C)c2c1c1ccccc1c1ccccc21 [1-4, reference compound]	261.3 °C	0.28 wt %
CN1/C(=C/C=C/C=C/C=C/C=C/C2=[N+](C)c3ccccc3C2(Cc2ccccc2)Cc2ccccc2)C(Cc2ccccc2)(Cc2ccccc2)c2ccccc21 [Example 1-1, Tetrafluoroborate Salt of Compound No. 2]	238.3 °C	0.16 wt %
CN1/C(=C/C=C/C=C/C=C/C=C/C2=[N+](C)c3ccccc3C2(Cc2ccccc2)Cc2ccccc2)C(Cc2ccccc2)(Cc2ccccc2)c2ccccc21 [Example 1-2, Bis(Trifluoromethane Sulfone)Imide Salt of Compound No. 2]	248.6 °C	2.34 wt %
O=S(=O)(c1ccc2c(c1)[S][Cu-]1([S]2)[S]c2ccc(S(=O)(=O)N3CCOCC3)cc2[S]1)N1CCOCC1 [Example 1-5, Quencher (1-1) Salt of Compound No. 3]	249.1 °C	0.39 wt %
O=S(=O)(c1ccc2c(c1)[S][Cu-]1([S]2)[S]c2ccc(S(=O)(=O)N3CCOCC3)cc2[S]1)N1CCOCC1 [Example 1-8, Quencher (1-1) Salt of Compound No. 4]	258.8 °C	3.69 wt %
CN1/C(=C/C=C/C=C/C=C/C=C/C2=[N+](C)c3c(c4ccccc4c4ccccc34)C2(C)C)C(C)(C)c2c1c1ccccc1c1ccccc21 [Example 1-12, bis(trifluoromethane sulfone)imide salt of Compound No. 105]	291.5 °C	1.13 wt %
